Publication PMC8929329, “The pharmaceutical excipient PEG400 affect the absorption of baicalein in Caco‐2 monolayer model by interacting with UDP‐glucuronosyltransferases and efflux transport proteins” (Pharmacology Research & Perspectives, 2022)
Where two headings read alike, the source gives them in different places.

Columns and labels:
UGT1A8 = experiment: Enzyme activity assay, intestinal microsome incubation: baicalein glucuronidation to B6G; assay type: in vitro ADME, human
Description: (§1) In this experiment, the effect of PEG400 on the enzyme activities of UGT1A8 and UGT1A9 was evaluated by in vitro microsome incubation. The activity of UGT1A8 and UGT1A9 was determined by detecting the production of BG and B6G with B as substrate.
(§2) The incubation system contained 10 µl of 50 mM Tris‐HCl (pH 7.4) buffer, 10 µl of 5 mM MgCl2 solution, 10 µl of 0.2 mg/ml alamethicin (Aladdin Biochemical Technology), and 20 µl of intestinal microsomes (Xenotech). The incubation system was pre‐incubated on ice for 15 min prior to experiment. Then, added 20 µl baicalein (dissolved in 50 mM Tris‐HCl) and PEG400 (20 µl) or 50 mM Tris‐HCl (20 µl) to the incubation system. The reaction was initiated by adding 5 mM UDPGA (10 µl) and incubated at 37°C for 15 min. The whole reaction was operated in a 1.5 ml centrifuge tube. Finally, the reaction was terminated by adding cold acetonitrile (100 µl) containing the genistein (IS). All solutions were thoroughly mixed for 3 min, then the mixture was centrifuged at 4°C at 16,000g for 15 min to precipitate the proteins completely. The supernatant was transferred and 10 µl was injected into the UPLC‐MS/MS system.
(§3) Kinetics parameters were obtained by fitting the data with Michaelis‐Menten equation (Equation 5) using […] GraphPad Prism® 9. (5) v=Vmax×s/Km+s where v (nmol/min/mg) is the velocity of metabolite formation, V max (nmol/min/mg) is the maximum velocity, K m (µM) is the Michaelis constant defined as the substrate concentration at half of V max, [S] (µM) is the substrate concentration

Stability study in HBSS = assay type: physicochemical; conditions: 37°C, 2 h
Description: The test was carried out by measuring the content of B, BG, and B6G before and after keeping in the HBSS solution at 37°C for 2 h. The time interval was selected according to the permeation experiment. The differences between the contents of the three samples before or after the incubation were calculated and expressed as the percentage of B, BG, and B6G remaining.

[1] = Permeation experiments on Caco-2 cell monolayer (two-way transport); assay type: in vitro ADME, human; conditions: human, read-out: corrected apparent permeability (Pcorrected); for Papp at 120 min, 5 μM: baicalein 5 μM; for Papp at 120 min, 15 μM: baicalein 15 μM
Description: (§4) Cell culture was performed as previously described.[15] For transport experiments, Caco-2 cells from passage number 20-30 were seeded at a density of 2 × 10^5 cells per well on transwell plate (a solid insert for cell culture contains porous permeable polycarbonate membrane) with polycarbonate membranes using a blood-counting chamber (QIU JING®). A 0.5 ml of culture medium with cells was added to the apical side (AP) and 1.5 ml of blank culture medium was added to the basolateral side (BL). During the incubation period, the medium on the AP and BL sides were changed every 2 days in the first week, and every day after a week until the 21st day. The permeation of samples was assessed in both directions at different concentrations. This experiment assessed the influence of different concentrations (%, v/v) of PEG400 on the permeation process of B, BG, and […]. […] Caco-2 cell monolayers with qualified monolayer membrane integrity were used for drug permeability experiments. Aspirated and discarded the original culture medium in the transwell plate, added pre-warmed (37°C) HBSS to wash 3 times, put it in the incubator for the last time and incubated for 30 min. […] For the AP-BL permeability (absorptive transport study), add 0.5 ml of samples (dissolved in HBSS) to the apical side (AP) as a supply chamber, and add 1.5 ml of pre-warmed HBSS to the basolateral side (BL) as a receiving chamber. Alternatively, in the permeation direction of BL-AP compartment (secretive transport study), add 1.5 ml of samples (dissolved in HBSS) to the BL side as a supply chamber, and add 0.5 ml of pre-warmed HBSS to the AP side as a receiving chamber. After the above steps, put the transwell plate on the thermostatic oscillator (Changzhou Wanhe Instrument Manufacturing Co., Ltd.) at 60 r/min. And sample 100 μl from the receiving pool or 10 μl from the supply chamber at 30, 60, 90, and 120 min depending on the experiment, and make up the same volume of blank pre-warmed HBSS. The sample taken from the transwell plate was precipitated with the 100 μl of methanol to precipitate the protein. After centrifugation at 16 000g for 15 min at 4°C, 70 μl of the supernatant was taken. And the content was determined by UPLC-MS/MS method to calculate the apparent permeability coefficient (P app) and efflux ratio (ER). The P app and ER of Caco-2 monolayers was measured and calculated as Equations ((2), (3), (4)): (2) Papp=dQ/dt/AC0 Where ΔQ/Δt (ng/ml·s) is the rate of permeability (ng/ml·s for B, BG, […]); A is for the membrane area (1.12 cm^2); C 0 (ng/ml/for B, BG, […]) is the initial concentration of the sample in the supply chamber. The apparent permeability might need to be corrected because of the effect of the marked amount of baicalein glucuronide.[17] Thus, the corrected permeability was calculated from the total rate of drug transport and the glucuronide excretion rate of bidirectional side divided by the membrane area (A) of the monolayer and the initial concentration of baicalein at the loading side (C 0): (3) Pcorrected=dQ/dt+Aex+Bex/AC0 (4) […] - BL Where P appBL-AP is the apparent permeability coefficient when the sample is added on the basolateral side; […]-BL is the apparent permeability coefficient when the sample is added on the apical side.

Caco-2 cell monolayer = experiment: as above; assay type: in vitro ADME, human
Description: as §4

UGT1A9 = experiment: Enzyme activity assay, intestinal microsome incubation: baicalein glucuronidation to BG; assay type: in vitro ADME, human; conditions: BG formation (UGT1A9)
Description: as §1, §2, §3

[2] = B6G formation (UGT1A8), 0.25% PEG400
[3] = B6G formation (UGT1A8), 0.5% PEG400
[4] = B6G formation (UGT1A8), 1% PEG400
[5] = B6G formation (UGT1A8), Control

Q: What does the source list for `O=c1cc(-c2ccccc2)oc2cc(O)c(O)c(O)c12` [B, baicalein]?
A: K m (UGT1A8; [2]): 28.44 ± 8.34 µM; V max (UGT1A8; [2]): 4.54 ± 0.40 nmol/min/mg protein; K m (UGT1A8; B6G formation (UGT1A8), 0.25% PEG400, listed as baicalein): 28.44 ± 8.34 µM; K m (UGT1A8; [3]): 38.86 ± 3.76 µM; V max (UGT1A8; [3]): 6.68 ± 0.29 nmol/min/mg protein; K m (UGT1A8; [4]): 194.73 ± 48.82 µM; V max (UGT1A8; [4]): 24.78 ± 4.67 nmol/min/mg protein; K m (UGT1A8; B6G formation (UGT1A8), 1% PEG400, listed as baicalein): 194.73 ± 48.82 µM; K m (UGT1A8; [5]): 43.33 ± 2.63 µM; V max (UGT1A8; [5]): 4.64 ± 0.11 nmol/min/mg protein; V max (UGT1A8; UGT1A8, 0.25%PEG400): 4.54 ± 0.4 nmol/min/mg; V max (UGT1A8; UGT1A8, 0.5% PEG400): 6.68 ± 0.29 nmol/min/mg; V max (UGT1A8; UGT1A8, 1% PEG400): 24.8 ± 4.67 nmol/min/mg; V max (UGT1A8; UGT1A8, no PEG400): 4.64 ± 0.11 nmol/min/mg; Stability (percentage remaining) (Stability study in HBSS; 150 ng ml^−1): 98.11 ± 3.85%; Stability (percentage remaining) (Stability study in HBSS; 300 ng ml^−1): 99.70 ± 5.23%; Stability (percentage remaining) (Stability study in HBSS; 600 ng ml^−1): 98.43 ± 7.23%; Papp at 120 min, 10 μM ([1]; Caco-2, 10 μM B loaded on AP side, 0.25% 1% PEG400 group): 99.7 ×10⁻⁶ cm/s; Papp at 120 min, 10 μM ([1]; Caco-2, 10 μM B loaded on AP side, 0.25% PEG400 group): 100 ×10⁻⁶ cm/s; Papp at 120 min, 10 μM ([1]; Caco-2, 10 μM B loaded on AP side, 0.5% PEG400 group): 94.7 ×10⁻⁶ cm/s; Papp at 120 min, 5 μM ([1]; Caco-2, AP-BL): 73.2 ×10⁻⁶ cm/s; Papp at 120 min, 10 μM ([1]; Caco-2, AP-BL, baicalein 10 μM): 78.4 ×10⁻⁶ cm/s; Papp at 120 min, 15 μM ([1]; Caco-2, AP-BL): 53.5 ×10⁻⁶ cm/s; Papp at 120 min, 10 μM ([1]; Caco-2, BL-AP, 10 μM B, 0.25% PEG400 group): 186 ×10⁻⁶ cm/s; Papp at 120 min, 10 μM ([1]; Caco-2, BL-AP, 10 μM B, 0.5% PEG400 group): 159 ×10⁻⁶ cm/s; Papp at 120 min, 10 μM ([1]; Caco-2, BL-AP, 10 μM B, 1% PEG400 group): 135 ×10⁻⁶ cm/s; Papp at 120 min, 5 μM ([1]; Caco-2, BL-AP): 120 ×10⁻⁶ cm/s; Papp at 120 min, 10 μM ([1]; Caco-2, BL-AP, baicalein 10 μM): 163 ×10⁻⁶ cm/s; Papp at 120 min, 15 μM ([1]; Caco-2, BL-AP): 105 ×10⁻⁶ cm/s; permeation within 2 h compared with the control group (Caco-2 cell monolayer; AL-BL experiment, baicalein 10 μM loaded with 0.5% (v/v) PEG400): significantly decreased; penetration within 2 h compared with the control group (Caco-2 cell monolayer; BL-AP experiment, baicalein 10 μM loaded with 0.5% (v/v) PEG): decreased significantly; K m (UGT1A9; 0.25% PEG400): 14.34 ± 1.92 µM; K m (UGT1A9; 0.25% PEG400, listed as baicalein): 14.34 ± 1.92 µM; K m (UGT1A9; 0.5% PEG400): 18.26 ± 3.61 µM; K m (UGT1A9; 1% PEG400): 28.30 ± 3.33 µM; K m (UGT1A9; 1% PEG400, listed as baicalein): 28.30 ± 3.33 µM; K m (UGT1A9; Control): 22.05 ± 3.74 µM
